Molecules are shown by their SMILES. Structures can show the parent of a compound that is named as a salt. A value given as a limit tells only on which side of the number the result lay.

For one assay, the target named is T1, JH2 domain of human Tyk2 (Homo sapiens, UniProt P29597).
T1 construct: 10×His-tagged TYK2 JH2 domain (amino acid 575-876)
The assay is described as follows: JH2 biochemical assay (TR-FRET probe displacement). The assay is classed as binding. The settings on record: JH2 biochemical assay. The method in brief: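 A probe-displacement TR-FRET readout: compounds, tested in 3-fold, 10-point dilutions starting at […], compete with 2 nM tracer for 2 nM His-tagged JH2 (residues 575-876) detected by 0.1 nM Tb-anti-His over 60 min. IC50 comes from 4-parameter fits of normalized 520/495 nm ratios.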

Assay [1] relates to Tyk2 kinase activity on STAT4. Nature of the assay: pSTAT4 cell assay (MSD, NK92 cells). In kind it is cell-based. As to conditions: compounds 1 hr, stimulated 15 minutes. The method in brief: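 IC50 values come from 4-parameter logistic fits of normalized percent activity. Phospho-STAT was read by MSD (anti-STAT4 antibodies) in NK92 lysates after a 15 min stimulation with 30 ng/mL IL2. The serum-starved cells had been given compound for 1 h (10 points, four-fold, top 10 μM).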

T1 sequence (P29597 575-876): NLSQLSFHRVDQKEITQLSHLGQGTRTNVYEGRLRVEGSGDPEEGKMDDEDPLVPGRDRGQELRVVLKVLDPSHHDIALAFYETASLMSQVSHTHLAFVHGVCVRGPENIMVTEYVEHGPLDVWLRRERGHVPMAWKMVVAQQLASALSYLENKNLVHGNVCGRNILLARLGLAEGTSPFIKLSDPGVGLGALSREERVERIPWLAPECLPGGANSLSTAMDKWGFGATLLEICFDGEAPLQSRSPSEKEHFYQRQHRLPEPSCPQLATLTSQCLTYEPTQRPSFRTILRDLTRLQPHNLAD

With `CC(=O)Nc1cc2c(cn1)C1(CC1)CN2c1cc(C)nc(CO)n1` [Example 126, N-(1′-(2-(hydroxymethyl)-6-methylpyrimidin-4-yl)-1′,2′-dihydrospiro[cyclopropane-1,3′-pyrrolo[3,2-c]pyridin]-6′-yl)acetamide], the IC50 at JH2 domain of human Tyk2 was 10 to 100 nM; in assay [1] it was no less than 1000 nM.
In the case of `CC(=O)Nc1cc2c(cn1)C1(CC1)CN2c1nc(C(C)(F)F)nc(C)c1F` [Example 127, N-(1′-(2-(1,1-difluoroethyl)-5-fluoro-6-methylpyrimidin-4-yl)-1′,2′-dihydrospiro[cyclopropane-1,3′-pyrrolo[3,2-c]pyridin]-6′-yl)acetamide], the IC50 was no more than 10 nM at JH2 domain of human Tyk2 and 100 to 1000 nM in assay [1].
In the same order, the values of `CC(=O)Nc1cc2c(cn1)C1(CC1)CN2c1nc(C(C)(F)F)ncc1F` [Example 128, N-(1′-(2-(1,1-difluoroethyl)-5-fluoropyrimidin-4-yl)-1′,2′-dihydrospiro[cyclopropane-1,3′-pyrrolo[3,2-c]pyridin]-6′-yl)acetamide] are 10 to 100 nM and no less than 1000 nM.
In the same order, the values of `COC(C)(C)c1nc(C)cc(N2CC3(CC3)c3cnc(NC(C)=O)cc32)n1` [Example 129, N-(1′-(2-(2-methoxypropan-2-yl)-6-methylpyrimidin-4-yl)-1′,2′-dihydrospiro[cyclopropane-1,3′-pyrrolo[3,2-c]pyridin]-6′-yl)acetamide] are 10 to 100 nM and 100 to 1000 nM.
With `COC(C)c1nc(C)cc(N2CC3(CC3)c3cnc(NC(C)=O)cc32)n1` (stereo not shown) [Example 130, N-(1′-(2-(1-methoxyethyl)-6-methylpyrimidin-4-yl)-1′,2′-dihydrospiro[cyclopropane-1,3′-pyrrolo[3,2-c]pyridin]-6′-yl)acetamide], the IC50 at JH2 domain of human Tyk2 was no more than 10 nM; in assay [1] it was 100 to 1000 nM.
For the compound `CC(=O)Nc1cc2c(cn1)C1(CC1)CN2c1cc(=O)[nH]c(C(C)(F)F)n1` [Example 133, N-(1′-(2-(1,1-difluoroethyl)-6-oxo-1,6-dihydropyrimidin-4-yl)-1′,2′-dihydrospiro[cyclopropane-1,3′-pyrrolo[3,2-c]pyridin]-6′-yl)acetamide], the values for the 50% inhibitory concentration (IC50) (at JH2 domain of human Tyk2; in assay [1]) were no more than 10 nM and no less than 1000 nM, respectively.
Consider `CC(=O)Nc1cc2c(cn1)C1(CC1)CN2c1cc(C)nc(S(C)(=O)=O)n1` [Example 136, N-(1′-(6-methyl-2-(methylsulfonyl)pyrimidin-4-yl)-1′,2′-dihydrospiro[cyclopropane-1,3′-pyrrolo[3,2-c]pyridin]-6′-yl)acetamide], for which the 50% inhibitory concentration (IC50) at JH2 domain of human Tyk2 is no more than 10 nM; in assay [1] it was 10 to 100 nM.
On the same counts, the results for `COC1CCN(c2nc(C)cc(N3CC4(CC4)c4cnc(NC(C)=O)cc43)n2)C1` (stereo not shown) [Example 137, N-(1′-(2-(3-methoxypyrrolidin-1-yl)-6-methylpyrimidin-4-yl)-1′,2′-dihydrospiro[cyclopropane-1,3′-pyrrolo[3,2-c]pyridin]-6′-yl)acetamide] are no more than 10 nM and 100 to 1000 nM.
Consider `CC(=O)Nc1cc2c(cn1)C1(CC1)CN2c1cc(C)nc(OC2CCC2)n1` [Example 138, N-(1′-(2-cyclobutoxy-6-methylpyrimidin-4-yl)-1′,2′-dihydrospiro[cyclopropane-1,3′-pyrrolo[3,2-c]pyridin]-6′-yl)acetamide], for which the IC50 at JH2 domain of human Tyk2 was 10 to 100 nM; in assay [1] it was no less than 1000 nM.
For `CC(=O)Nc1cc2c(cn1)C1(CC1)CN2c1cc(OCCN(C)C)nc(C(C)(F)F)n1` [Example 140, N-(1′-(2-(1,1-difluoroethyl)-6-(2-(dimethylamino)ethoxy)pyrimidin-4-yl)-1′,2′-dihydrospiro[cyclopropane-1,3′-pyrrolo[3,2-c]pyridin]-6′-yl)acetamide trifluoroacetate], the half-maximal inhibitory concentration (IC50) at JH2 domain of human Tyk2 was 10 to 100 nM; in assay [1], no less than 1000 nM.
On the same counts, the results for `CC(=O)Nc1cc2c(cn1)C1(CC1)CN2c1cc(OC2COC2)nc(C(C)(F)F)n1` [Example 141, N-(1′-(2-(1,1-difluoroethyl)-6-(oxetan-3-yloxy)pyrimidin-4-yl)-1′,2′-dihydrospiro[cyclopropane-1,3′-pyrrolo[3,2-c]pyridin]-6′-yl)acetamide] are no more than 10 nM and 100 to 1000 nM.
On the same counts, the results for `CC(=O)Nc1cc2c(cn1)C1(CC1)CN2c1cc(Oc2cncnc2)nc(C(C)(F)F)n1` [Example 142, N-(1′-(2-(1,1-difluoroethyl)-6-(pyrimidin-5-yloxy)pyrimidin-4-yl)-1′,2′-dihydrospiro[cyclopropane-1,3′-pyrrolo[3,2-c]pyridin]-6′-yl)acetamide trifluoroacetate] are 10 to 100 nM and no less than 1000 nM.
On the same counts, the results for `CC(=O)Nc1cc2c(cn1)C1(CC1)CN2c1cc(Oc2ccn(C)n2)nc(C(C)(F)F)n1` [Example 143, N-(1′-(2-(1,1-difluoroethyl)-6-((1-methyl-1H-pyrazol-3-yl)oxy)pyrimidin-4-yl)-1′,2′-dihydrospiro[cyclopropane-1,3′-pyrrolo[3,2-c]pyridin]-6′-yl)acetamide trifluoroacetate] are no more than 10 nM and 100 to 1000 nM.
For the compound `CC(=O)Nc1cc2c(cn1)C1(CC1)CN2c1cc(OC2(C#N)CC2)nc(C(C)(F)F)n1` [Example 144, N-(1′-(6-(1-cyanocyclopropoxy)-2-(1,1-difluoroethyl)pyrimidin-4-yl)-1′,2′-dihydrospiro[cyclopropane-1,3′-pyrrolo[3,2-c]pyridin]-6′-yl)acetamide trifluoroacetate], the figures for the half-inhibitory concentration (IC50) (on JH2 domain of human Tyk2; in assay [1]) were 10 to 100 nM and no less than 1000 nM, respectively.
In the same order, the values of `CC(=O)Nc1cc2c(cn1)C1(CC1)CN2c1cc(Oc2cnn(C)c2)nc(C(C)(F)F)n1` [Example 145, N-(1′-(2-(1,1-difluoroethyl)-6-((1-methyl-1H-pyrazol-4-yl)oxy)pyrimidin-4-yl)-1′,2′-dihydrospiro[cyclopropane-1,3′-pyrrolo[3,2-c]pyridin]-6′-yl)acetamide trifluoroacetate] are 10 to 100 nM and 100 to 1000 nM.
For the compound `CC(=O)Nc1cc2c(cn1)C1(CC1)CN2c1cc(Oc2cnnn2C)nc(C(C)(F)F)n1` [Example 149, N-(1′-(2-(1,1-difluoroethyl)-6-((1-methyl-1H-1,2,3-triazol-5-yl)oxy)pyrimidin-4-yl)-1′,2′-dihydrospiro[cyclopropane-1,3′-pyrrolo[3,2-c]pyridin]-6′-yl)acetamide trifluorocetate], the IC50 on JH2 domain of human Tyk2 is 10 to 100 nM; in assay [1], no less than 1000 nM.
In the same order, the values of `CC(=O)Nc1cc2c(cn1)C1(CC1)CN2c1cc(OC(C)C#N)nc(C(C)(F)F)n1` (stereo not shown) [Example 151, N-(1′-(6-(1-cyanoethoxy)-2-(1,1-difluoroethyl)pyrimidin-4-yl)-1′,2′-dihydrospiro[cyclopropane-1,3′-pyrrolo[3,2-c]pyridin]-6′-yl)acetamide trifluoroacetate] are 10 to 100 nM and no less than 1000 nM.
Turning to `CC(=O)Nc1cc2c(cn1)C1(CC1)CN2c1cc(OC(C#N)C2CC2)nc(C(C)(F)F)n1` (stereo not shown) [Example 152, N-(1′-(6-(cyano(cyclopropyl)methoxy)-2-(1,1-difluoroethyl)pyrimidin-4-yl)-1′,2′-dihydrospiro[cyclopropane-1,3′-pyrrolo[3,2-c]pyridin]-6′-yl)acetamide trifluoroacetate], the half-inhibitory concentration (IC50) at JH2 domain of human Tyk2 fell in the range of 10 to 100 nM; in assay [1], 100 to 1000 nM.
In the same order, the values of `CC(=O)Nc1cc2c(cn1)C1(CC1)CN2c1cc(NC(C)C)nc(C(C)(F)F)n1` [Example 153, N-(1′-(2-(1,1-difluoroethyl)-6-(isopropylamino)pyrimidin-4-yl)-1′,2′-dihydrospiro[cyclopropane-1,3′-pyrrolo[3,2-c]pyridin]-6′-yl)acetamide trifluoroacetate] are no more than 10 nM and 10 to 100 nM.
In the same order, the values of `CC(=O)Nc1cc2c(cn1)C1(CC1)CN2c1cc(NCC2CC2)nc(C(C)(F)F)n1` [Example 154, N-(1′-(6-((cyclopropylmethyl)amino)-2-(1,1-difluoroethyl)pyrimidin-4-yl)-1′,2′-dihydrospiro[cyclopropane-1,3′-pyrrolo[3,2-c]pyridin]-6′-yl)acetamide trifluoroacetate] are no more than 10 nM and no more than 10 nM.
With `CC(=O)Nc1cc2c(cn1)C1(CC1)CN2c1cc(NC2CCOCC2)nc(C(C)(F)F)n1` [Example 155, N-(1′-(2-(1,1-difluoroethyl)-6-((tetrahydro-2H-pyran-4-yl)amino)pyrimidin-4-yl)-1′,2′-dihydrospiro[cyclopropane-1,3′-pyrrolo[3,2-c]pyridin]-6′-yl)acetamide], the IC50 was no more than 10 nM at JH2 domain of human Tyk2 and 10 to 100 nM in assay [1].
On the same counts, the results for `CCCNc1cc(N2CC3(CC3)c3cnc(NC(C)=O)cc32)nc(C(C)(F)F)n1` [Example 156, N-(1′-(2-(1,1-difluoroethyl)-6-(propylamino)pyrimidin-4-yl)-1′,2′-dihydrospiro[cyclopropane-1,3′-pyrrolo[3,2-c]pyridin]-6′-yl)acetamide trifluoroacetate] are no more than 10 nM and no more than 10 nM.
Take `CC(=O)Nc1cc2c(cn1)C1(CC1)CN2c1cc(NC2CCC2)nc(C(C)(F)F)n1` [Example 157, N-(1′-(6-(cyclobutylamino)-2-(1,1-difluoroethyl)pyrimidin-4-yl)-1′,2′-dihydrospiro[cyclopropane-1,3′-pyrrolo[3,2-c]pyridin]-6′-yl)acetamide trifluoroacetate]: the IC50 (on JH2 domain of human Tyk2; in assay [1]) was no more than 10 nM each time.

Usually IC50 stands for the concentration needed to halve the response being measured. Low values mean greater potency, high ones weaker potency.

The values are drawn from patent US20260258032A1, “TYROSINE KINASE 2 INHIBITORS AND USES THEREOF” (BIOGEN MA INC., priority 2022, published 2026).
